From publication PMC10611619, “[^99mTc]Tc-PentixaTec: development, extensive pre-clinical evaluation, and first human experience” (European Journal of Nuclear Medicine and Molecular Imaging, 2023)
Where a SMILES comes first, the peptide text is derived from it. Side-chain parts run from the residue outwards. [ ]: non-standard residue; d: D form. The star is where a group is joined. 2Nal = N[C@@H](Cc1ccc2ccccc2c1)C(=O)O; dNMeOrn = CN[C@H](CCCN)C(=O)O; 4Abz = Nc1ccc(C(=O)O)cc1; X1 = NCCNCC(CNCCN)C(=O)*; dDap = NC[C@@H](N)C(=O)O

Assay: Patient radiation dosimetry (OLINDA/EXM, RADAR/MIRD)
Assay type: in vivo, human
Details: for Absorbed organ dose Adrenals / Absorbed organ dose Brain / Absorbed organ dose Breast / Absorbed organ dose Gallbladder wall / Absorbed organ dose Heart wall / Absorbed organ dose Kidneys / Absorbed organ dose LLI wall / Absorbed organ dose Liver / Absorbed organ dose Lungs / Absorbed organ dose Muscle / Absorbed organ dose Osteogenic cells / Absorbed organ dose Ovaries / Absorbed organ dose Pancreas / Absorbed organ dose Red marrow / Absorbed organ dose Skin / Absorbed organ dose Small intestine / Absorbed organ dose Spleen / Absorbed organ dose Stomach wall / Absorbed organ dose Testes / Absorbed organ dose Thymus / Absorbed organ dose Thyroid / Absorbed organ dose Total body / Absorbed organ dose ULI wall / Absorbed organ dose Urinary bladder wall / Absorbed organ dose Uterus: per 1 MBq
Experimental: Radiation dosimetry calculations were performed using the RADAR (Radiation Dose Assessment Resource) method as implemented in the OLINDA/EXM software and according to the recommendations of the Medical Internal Radiation Dose (MIRD) committee. The individual absorbed organ doses (ODs) and the effective doses (EDs) were corrected to consider the current tissue weighting factors of ICRP 103 [38]. For a detailed description of image analysis for dosimetry, please refer to the supplementary materials section.
The Xeleris^TM Dosimetry Toolkit (GE Healthcare, Milwaukee, USA) was used to perform full organ segmentation by an experienced user. This was performed manually on CT images of organs (kidneys, liver, spleen, heart, lungs, lumbar vertebrae 2-4) to define the regions and volumes of interest (VOIs) for gamma camera scans and SPECT analysis. Quantification of the activity in the VOIs was carried out as converting counts in the VOIs by a calibration factor to the average activity per milliliter and per organ.
The VOIs were transferred from SPECT/CT to the planar images. Additional ROIs for the whole body and a background region adjacent to the head were drawn on the planar images.
The VOIs were used to determine the masses of the individual organs. For the lungs, a density of 0.288 g/mL was used. For all organs not covered by any VOI, the uptake was summed as the contribution from the remainder of the body in the dose calculation.
The time-integrated activity coefficients of all contoured organs were determined using the hybrid planar/SPECT method. Thus, the shape of the time-activity curves were estimated based on the planar images using the NUKFIT software and then scaled to activity values using the SPECT/CT. The accumulated activity in the bone marrow was calculated using the activity in the lumbar vertebrae 2-4 with the assumption that these contain 6.7% of the red bone marrow.
Radiation dosimetry calculations were performed using the RADAR (Radiation Dose Assessment Resource) method as implemented in the OLINDA/EXM software and according to the recommendations of the Medical Internal Radiation Dose (MIRD) committee. The OLINDA/EXM application (version 1.0) was used to calculate the individual absorbed organ doses (ODs) and the effective doses (EDs) by using the time-integrated activity coefficients and the individual patients’ organ masses. A mass of 1500 g for the red bone marrow as assumed for all patients. The EDs were afterwards corrected to consider the current tissue weighting factors of ICRP 103 [16]. The absorbed OD and ED were evaluated for each patient and then averaged across all the patients.

C[C@@H](NC(=O)[C@@H](CCCNC(=N)N)NC(=O)[C@@H](CN)NC(=O)C(CNCCN)CNCCN)C(=O)Nc1ccc(C(=O)NCCC[C@@H]2C(=O)N[C@@H](CCCNC(=N)N)C(=O)N[C@@H](Cc3ccc4ccccc4c3)C(=O)NCC(=O)N[C@H](Cc3ccc(O)cc3)C(=O)N2C)cc1 [[^99mTc]Tc-N4-L6-CPCR4, [^99mTc]Tc-N4-dap-r-a-Abz-CPCR4, metal not drawn] (cyclo([dY][dNMeOrn]([4Abz-dA-dR-dDap-X1])R[2Nal]G))
absorbed dose bone marrow, median (four patients): 9.40E − 03 mGy/MBq
absorbed dose bone marrow, range (four patients): 6.2E − 03–13.50E − 03 mGy/MBq
absorbed dose kidneys, median (four patients): 1.23E − 02 mGy/MBq
absorbed dose kidneys, range (four patients): 0.94 E − 02–1.37E − 02 mGy/MBq
absorbed dose spleen, median (four patients): 1.95E − 02 mGy/MBq
absorbed dose spleen, range (four patients): 1.61E − 02–2.38E − 02 mGy/MBq
effective dose per unit of administered activity, median (four patients): 5.3E − 03 mSv/MBq
effective dose per unit of administered activity, range (four patients): 4.3E − 03–6.7E − 03 mSv/MBq
Absorbed organ dose Adrenals (Median): 0.0065 mGy
Absorbed organ dose Brain (Median): 0.0030 mGy
Absorbed organ dose Breast (Median): 0.0025 mGy
Absorbed organ dose Gallbladder wall (Median): 0.0060 mGy
Absorbed organ dose Heart wall (Median): 0.0044 mGy
Absorbed organ dose Kidneys (Median): 0.0123 mGy
Absorbed organ dose LLI wall (Median): 0.0048 mGy
Absorbed organ dose Liver (Median): 0.0077 mGy
Absorbed organ dose Lungs (Median): 0.0063 mGy
Absorbed organ dose Muscle (Median): 0.0035 mGy
Absorbed organ dose Osteogenic cells (Median): 0.0136 mGy
Absorbed organ dose Ovaries (Median): 0.0050 mGy
Absorbed organ dose Pancreas (Median): 0.0070 mGy
Absorbed organ dose Red marrow (Median): 0.0094 mGy
Absorbed organ dose Skin (Median): 0.0023 mGy
Absorbed organ dose Small intestine (Median): 0.0049 mGy
Absorbed organ dose Spleen (Median): 0.0195 mGy
Absorbed organ dose Stomach wall (Median): 0.0051 mGy
Absorbed organ dose Testes (Median): 0.0026 mGy
Absorbed organ dose Thymus (Median): 0.0036 mGy
Absorbed organ dose Thyroid (Median): 0.0033 mGy
Absorbed organ dose Total body (Median): 0.0037 mGy
Absorbed organ dose ULI wall (Median): 0.0049 mGy
Absorbed organ dose Urinary bladder wall (Median): 0.0041 mGy
Absorbed organ dose Uterus (Median): 0.0047 mGy
Absorbed organ dose Adrenals (Patient 1): 0.0053 mGy
Absorbed organ dose Brain (Patient 1): 0.0023 mGy
Absorbed organ dose Breast (Patient 1): 0.0021 mGy
Absorbed organ dose Gallbladder wall (Patient 1): 0.0051 mGy
Absorbed organ dose Heart wall (Patient 1): 0.0040 mGy
Absorbed organ dose Kidneys (Patient 1): 0.0137 mGy
Absorbed organ dose LLI wall (Patient 1): 0.0037 mGy
Absorbed organ dose Liver (Patient 1): 0.0066 mGy
Absorbed organ dose Lungs (Patient 1): 0.0051 mGy
Absorbed organ dose Muscle (Patient 1): 0.0028 mGy
Absorbed organ dose Osteogenic cells (Patient 1): 0.0099 mGy
Absorbed organ dose Ovaries (Patient 1): 0.0040 mGy
Absorbed organ dose Pancreas (Patient 1): 0.0055 mGy
Absorbed organ dose Red marrow (Patient 1): 0.0065 mGy
Absorbed organ dose Skin (Patient 1): 0.0018 mGy
Absorbed organ dose Small intestine (Patient 1): 0.0041 mGy
Absorbed organ dose Spleen (Patient 1): 0.0161 mGy
Absorbed organ dose Stomach wall (Patient 1): 0.0040 mGy
Absorbed organ dose Testes (Patient 1): 0.0023 mGy
Absorbed organ dose Thymus (Patient 1): 0.0030 mGy
Absorbed organ dose Thyroid (Patient 1): 0.0028 mGy
Absorbed organ dose Total body (Patient 1): 0.0028 mGy
Absorbed organ dose ULI wall (Patient 1): 0.0040 mGy
Absorbed organ dose Urinary bladder wall (Patient 1): 0.0033 mGy
Absorbed organ dose Uterus (Patient 1): 0.0038 mGy
Absorbed organ dose Adrenals (Patient 2): 0.0078 mGy
Absorbed organ dose Brain (Patient 2): 0.0032 mGy
Absorbed organ dose Breast (Patient 2): 0.0028 mGy
Absorbed organ dose Gallbladder wall (Patient 2): 0.0068 mGy
Absorbed organ dose Heart wall (Patient 2): 0.0049 mGy
Absorbed organ dose Kidneys (Patient 2): 0.0117 mGy
Absorbed organ dose LLI wall (Patient 2): 0.0053 mGy
Absorbed organ dose Liver (Patient 2): 0.0087 mGy
Absorbed organ dose Lungs (Patient 2): 0.0079 mGy
Absorbed organ dose Muscle (Patient 2): 0.0038 mGy
Absorbed organ dose Osteogenic cells (Patient 2): 0.0162 mGy
Absorbed organ dose Ovaries (Patient 2): 0.0054 mGy
Absorbed organ dose Pancreas (Patient 2): 0.0083 mGy
Absorbed organ dose Red marrow (Patient 2): 0.0135 mGy
Absorbed organ dose Skin (Patient 2): 0.0024 mGy
Absorbed organ dose Small intestine (Patient 2): 0.0053 mGy
Absorbed organ dose Spleen (Patient 2): 0.0238 mGy
Absorbed organ dose Stomach wall (Patient 2): 0.0057 mGy
Absorbed organ dose Thymus (Patient 2): 0.0040 mGy
Absorbed organ dose Thyroid (Patient 2): 0.0032 mGy
Absorbed organ dose Total body (Patient 2): 0.0039 mGy
Absorbed organ dose ULI wall (Patient 2): 0.0055 mGy
Absorbed organ dose Urinary bladder wall (Patient 2): 0.0043 mGy
Absorbed organ dose Uterus (Patient 2): 0.0049 mGy
Absorbed organ dose Adrenals (Patient 3): 0.0083 mGy
Absorbed organ dose Brain (Patient 3): 0.0039 mGy
Absorbed organ dose Breast (Patient 3): 0.0032 mGy
Absorbed organ dose Gallbladder wall (Patient 3): 0.0073 mGy
Absorbed organ dose Heart wall (Patient 3): 0.0054 mGy
Absorbed organ dose Kidneys (Patient 3): 0.0128 mGy
Absorbed organ dose LLI wall (Patient 3): 0.0062 mGy
Absorbed organ dose Liver (Patient 3): 0.0089 mGy
Absorbed organ dose Lungs (Patient 3): 0.0075 mGy
Absorbed organ dose Muscle (Patient 3): 0.0044 mGy
Absorbed organ dose Osteogenic cells (Patient 3): 0.0184 mGy
Absorbed organ dose Ovaries (Patient 3): 0.0064 mGy
Absorbed organ dose Pancreas (Patient 3): 0.0092 mGy
Absorbed organ dose Red marrow (Patient 3): 0.0123 mGy
Absorbed organ dose Skin (Patient 3): 0.0027 mGy
Absorbed organ dose Small intestine (Patient 3): 0.0062 mGy
Absorbed organ dose Spleen (Patient 3): 0.0202 mGy
Absorbed organ dose Stomach wall (Patient 3): 0.0066 mGy
Absorbed organ dose Thymus (Patient 3): 0.0045 mGy
Absorbed organ dose Thyroid (Patient 3): 0.0039 mGy
Absorbed organ dose Total body (Patient 3): 0.0052 mGy
Absorbed organ dose ULI wall (Patient 3): 0.0063 mGy
Absorbed organ dose Urinary bladder wall (Patient 3): 0.0053 mGy
Absorbed organ dose Uterus (Patient 3): 0.0059 mGy
Absorbed organ dose Adrenals (Patient 4): 0.00524 mGy
Absorbed organ dose Brain (Patient 4): 0.00278 mGy
Absorbed organ dose Breast (Patient 4): 0.00227 mGy
Absorbed organ dose Gallbladder wall (Patient 4): 0.00502 mGy
Absorbed organ dose Heart wall (Patient 4): 0.00317 mGy
Absorbed organ dose Kidneys (Patient 4): 0.00936 mGy
Absorbed organ dose LLI wall (Patient 4): 0.00428 mGy
Absorbed organ dose Liver (Patient 4): 0.00636 mGy
Absorbed organ dose Lungs (Patient 4): 0.00337 mGy
Absorbed organ dose Muscle (Patient 4): 0.00318 mGy
Absorbed organ dose Osteogenic cells (Patient 4): 0.011 mGy
Absorbed organ dose Ovaries (Patient 4): 0.00451 mGy
Absorbed organ dose Pancreas (Patient 4): 0.00571 mGy
Absorbed organ dose Red marrow (Patient 4): 0.00617 mGy
Absorbed organ dose Skin (Patient 4): 0.00209 mGy
Absorbed organ dose Small intestine (Patient 4): 0.00455 mGy
Absorbed organ dose Spleen (Patient 4): 0.0188 mGy
Absorbed organ dose Stomach wall (Patient 4): 0.00441 mGy
Absorbed organ dose Testes (Patient 4): 0.00282 mGy
Absorbed organ dose Thymus (Patient 4): 0.00324 mGy
Absorbed organ dose Thyroid (Patient 4): 0.00329 mGy
Absorbed organ dose Total body (Patient 4): 0.00351 mGy
Absorbed organ dose ULI wall (Patient 4): 0.00441 mGy
Absorbed organ dose Urinary bladder wall (Patient 4): 0.00385 mGy
Absorbed organ dose Uterus (Patient 4): 0.0044 mGy
Absorbed organ dose Adrenals (Range Max): 0.0083 mGy
Absorbed organ dose Brain (Range Max): 0.0039 mGy
Absorbed organ dose Breast (Range Max): 0.0032 mGy
Absorbed organ dose Gallbladder wall (Range Max): 0.0073 mGy
Absorbed organ dose Heart wall (Range Max): 0.0054 mGy
Absorbed organ dose Kidneys (Range Max): 0.0137 mGy
Absorbed organ dose LLI wall (Range Max): 0.0062 mGy
Absorbed organ dose Liver (Range Max): 0.0089 mGy
Absorbed organ dose Lungs (Range Max): 0.0079 mGy
Absorbed organ dose Muscle (Range Max): 0.0044 mGy
Absorbed organ dose Osteogenic cells (Range Max): 0.0184 mGy
Absorbed organ dose Ovaries (Range Max): 0.0064 mGy
Absorbed organ dose Pancreas (Range Max): 0.0092 mGy
Absorbed organ dose Red marrow (Range Max): 0.0135 mGy
Absorbed organ dose Skin (Range Max): 0.0027 mGy
Absorbed organ dose Small intestine (Range Max): 0.0062 mGy
Absorbed organ dose Spleen (Range Max): 0.0238 mGy
Absorbed organ dose Stomach wall (Range Max): 0.0066 mGy
Absorbed organ dose Testes (Range Max): 0.0028 mGy
Absorbed organ dose Thymus (Range Max): 0.0045 mGy
Absorbed organ dose Thyroid (Range Max): 0.0039 mGy
Absorbed organ dose Total body (Range Max): 0.0052 mGy
Absorbed organ dose ULI wall (Range Max): 0.0063 mGy
Absorbed organ dose Urinary bladder wall (Range Max): 0.0053 mGy
Absorbed organ dose Uterus (Range Max): 0.0059 mGy
Absorbed organ dose Adrenals (Range Min): 0.0052 mGy
Absorbed organ dose Brain (Range Min): 0.0023 mGy
Absorbed organ dose Breast (Range Min): 0.0021 mGy
Absorbed organ dose Gallbladder wall (Range Min): 0.0050 mGy
Absorbed organ dose Heart wall (Range Min): 0.0032 mGy
Absorbed organ dose Kidneys (Range Min): 0.0094 mGy
Absorbed organ dose LLI wall (Range Min): 0.0037 mGy
Absorbed organ dose Liver (Range Min): 0.0064 mGy
Absorbed organ dose Lungs (Range Min): 0.0034 mGy
Absorbed organ dose Muscle (Range Min): 0.0028 mGy
Absorbed organ dose Osteogenic cells (Range Min): 0.0099 mGy
Absorbed organ dose Ovaries (Range Min): 0.0040 mGy
Absorbed organ dose Pancreas (Range Min): 0.0055 mGy
Absorbed organ dose Red marrow (Range Min): 0.0062 mGy
Absorbed organ dose Skin (Range Min): 0.0018 mGy
Absorbed organ dose Small intestine (Range Min): 0.0041 mGy
Absorbed organ dose Spleen (Range Min): 0.0161 mGy
Absorbed organ dose Stomach wall (Range Min): 0.0040 mGy
Absorbed organ dose Testes (Range Min): 0.0023 mGy
Absorbed organ dose Thymus (Range Min): 0.0030 mGy
Absorbed organ dose Thyroid (Range Min): 0.0028 mGy
Absorbed organ dose Total body (Range Min): 0.0028 mGy
Absorbed organ dose ULI wall (Range Min): 0.0040 mGy
Absorbed organ dose Urinary bladder wall (Range Min): 0.0033 mGy
Absorbed organ dose Uterus (Range Min): 0.0038 mGy
effective dose, range (per 500 MBq): 2.1–3.4 mSv
effective dose, median (standard activity of 500 MBq): 2.7 mSv
